We go through 13 molecules from US20230111310A1, “CARBOXYLIC ACID DERIVATIVE-SUBSTITUTED IMINO ARYL COMPOUND, PREPARATION METHOD THEREFOR, HERBICIDAL COMPOSITION AND USE THEREOF” (Qingdao Kingagroot Chemical Compound Co., Ltd., priority 2020, published 2023).

Common to all, as to assay: Weeding effect in post-emergence stage
What all share (type): in vivo
Conditions in all cases: Dose 15 g/ha; level of fresh weight growth control rate

The test system of test [1] is Abutilon theophrasti. The method in brief: (§1)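 Seeds are sown in soil-filled pots under 0.5-2 cm soil and grown 2 weeks in greenhouse. Plants at 2-3 leaves are sprayed with compound (acetone, Tween 80, 1.5 liter/ha methyl oleate EC, water) at 7.5 to 500 g/ha. Damage is rated 3 weeks later, averaging three repeats.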
The subject of test [2] is Alopecurus japonicus. The method in brief: as §1
In test [3] the test system is Digitaria sanguinalis. The method in brief:
as §1

Test [4] deals with Eleusine indica. The method in brief: as §1
Test [5] has as its system Setaria viridis. The method in brief:
as §1

Test [6] relates to Echinochloa crusgalli. The method in brief: as §1

Structures are written as SMILES.

As to `CC(O/N=C/c1cc(-n2c(=O)n(C)c(=S)n(C)c2=O)c(F)cc1Cl)C(=O)OCc1ccco1` (stereo not drawn) [Compound 26], the “Weeding effect in post-emergence stage, Abutilon theophrasti” value (from here on “Weeding effect … Abutilon theophrasti”) in test [1] is 5 (Level 5: growth control rate is above 85%). Moreover, the “Weeding effect in post-emergence stage, Alopecurus japonicus” value (“Weeding effect … Alopecurus japonicus” below) in test [2] is 5 (Level 5: growth control rate is above 85%). The “Weeding effect in post-emergence stage, Digitaria sanguinalis” value (shortened to “Weeding effect … Digitaria sanguinalis”) in test [3] is reported as 5 (Level 5: growth control rate is above 85%). The “Weeding effect in post-emergence stage, Eleusine indica” value (from here on “Weeding effect … Eleusine indica”) in test [4] was 5 (Level 5: growth control rate is above 85%). For the same molecule, in test [5], the “Weeding effect in post-emergence stage, Setaria viridis” value (shortened to “Weeding effect … Setaria viridis”) was 5 (Level 5: growth control rate is above 85%). Further, the “Weeding effect in post-emergence stage, Echinochloa crusgalli” value (“Weeding effect … Echinochloa crusgalli” below) in test [6] was 5 (Level 5: growth control rate is above 85%).
Turning to `CC(O/N=C/c1cc(-n2c(=O)n(C)c(=S)n(C)c2=O)c(F)cc1Cl)C(=O)OCc1ccccc1` (stereo not drawn) [Compound 42], the “Weeding effect … Abutilon theophrasti” value in test [1] was 5 (Level 5: growth control rate is above 85%). Moreover, the “Weeding effect … Alopecurus japonicus” value in test [2] is 4 (Level 4: growth control rate is greater than or equal to 60% and less than 85%). In addition, the “Weeding effect … Digitaria sanguinalis” value in test [3] is recorded as 5 (Level 5: growth control rate is above 85%). Also, the “Weeding effect … Eleusine indica” value in test [4] was 5 (Level 5: growth control rate is above 85%). In addition, in test [5], the “Weeding effect … Setaria viridis” value is 5 (Level 5: growth control rate is above 85%). The “Weeding effect … Echinochloa crusgalli” value in test [6] was 5 (Level 5: growth control rate is above 85%).
Take `CC(O/N=C/c1cc(-n2c(=O)n(C)c(=S)n(C)c2=O)c(F)cc1Cl)C(=O)OCc1ccncc1` (stereo not drawn) [Compound 60]: the “Weeding effect … Abutilon theophrasti” value in test [1] is 5 (Level 5: growth control rate is above 85%). For the same molecule, in test [2], the “Weeding effect … Alopecurus japonicus” value is 4 (Level 4: growth control rate is greater than or equal to 60% and less than 85%). Moreover, the “Weeding effect … Digitaria sanguinalis” value in test [3] is given as 5 (Level 5: growth control rate is above 85%). Besides, in test [4], the “Weeding effect … Eleusine indica” value is 5 (Level 5: growth control rate is above 85%). The “Weeding effect … Setaria viridis” value in test [5] is given as 5 (Level 5: growth control rate is above 85%). Further, in test [6], the “Weeding effect … Echinochloa crusgalli” value is 5 (Level 5: growth control rate is above 85%).
Regarding `CCC(O/N=C/c1cc(-n2c(=O)n(C)c(=S)n(C)c2=O)c(F)cc1Cl)C(=O)OC` (stereo not drawn) [Compound 72], in test [1], the “Weeding effect … Abutilon theophrasti” value is given as 5 (Level 5: growth control rate is above 85%). The “Weeding effect … Alopecurus japonicus” value in test [2] is 4 (Level 4: growth control rate is greater than or equal to 60% and less than 85%). Also, the “Weeding effect … Digitaria sanguinalis” value in test [3] is recorded as 5 (Level 5: growth control rate is above 85%). In addition, the “Weeding effect … Eleusine indica” value in test [4] was 5 (Level 5: growth control rate is above 85%). The “Weeding effect … Setaria viridis” value in test [5] is 5 (Level 5: growth control rate is above 85%). In addition, in test [6], the “Weeding effect … Echinochloa crusgalli” value is listed as 5 (Level 5: growth control rate is above 85%).
`CCOC(=O)C(O/N=C/c1cc(-n2c(=O)n(C)c(=S)n(C)c2=O)c(F)cc1Cl)C1CC1` (stereo not drawn) [Compound 76]: in test [1], the “Weeding effect … Abutilon theophrasti” value is 5 (Level 5: growth control rate is above 85%). The “Weeding effect … Alopecurus japonicus” value in test [2] is reported as 5 (Level 5: growth control rate is above 85%). The “Weeding effect … Digitaria sanguinalis” value in test [3] is given as 5 (Level 5: growth control rate is above 85%). Besides, in test [4], the “Weeding effect … Eleusine indica” value was 5 (Level 5: growth control rate is above 85%). In test [5], the “Weeding effect … Setaria viridis” value is given as 5 (Level 5: growth control rate is above 85%). Besides, the “Weeding effect … Echinochloa crusgalli” value in test [6] is recorded as 5 (Level 5: growth control rate is above 85%).
As for `COCC(O/N=C/c1cc(-n2c(=O)n(C)c(=S)n(C)c2=O)c(F)cc1Cl)C(=O)OC` (stereo not drawn) [Compound 80], the “Weeding effect … Abutilon theophrasti” value in test [1] is listed as 5 (Level 5: growth control rate is above 85%). For the same molecule, the “Weeding effect … Alopecurus japonicus” value in test [2] was 5 (Level 5: growth control rate is above 85%). Also, the “Weeding effect … Digitaria sanguinalis” value in test [3] is on record as 5 (Level 5: growth control rate is above 85%). Further, the “Weeding effect … Eleusine indica” value in test [4] is 5 (Level 5: growth control rate is above 85%). In test [5], the “Weeding effect … Setaria viridis” value is reported as 5 (Level 5: growth control rate is above 85%). Besides, in test [6], the “Weeding effect … Echinochloa crusgalli” value is given as 5 (Level 5: growth control rate is above 85%).
Turning to `COC(=O)C(C)O/N=C/c1cc(-n2c(=O)n(C)c(=S)n(C)c2=O)c(F)cc1Br` (stereo not drawn) [Compound 83], in test [1], the “Weeding effect … Abutilon theophrasti” value is listed as 5 (Level 5: growth control rate is above 85%). Also, the “Weeding effect … Alopecurus japonicus” value in test [2] is 4 (Level 4: growth control rate is greater than or equal to 60% and less than 85%). Also, the “Weeding effect … Digitaria sanguinalis” value in test [3] was 4 (Level 4: growth control rate is greater than or equal to 60% and less than 85%). Moreover, the “Weeding effect … Eleusine indica” value in test [4] is given as 5 (Level 5: growth control rate is above 85%). Besides, the “Weeding effect … Setaria viridis” value in test [5] is recorded as 5 (Level 5: growth control rate is above 85%). In test [6], the “Weeding effect … Echinochloa crusgalli” value is listed as 5 (Level 5: growth control rate is above 85%).
Consider `CCOC(=O)C(C)O/N=C/c1cc(-n2c(=O)n(C)c(=S)n(C)c2=O)c(F)cc1Br` (stereo not drawn) [Compound 84], for which, in test [1], the “Weeding effect … Abutilon theophrasti” value is 5 (Level 5: growth control rate is above 85%). In addition, in test [2], the “Weeding effect … Alopecurus japonicus” value is 4 (Level 4: growth control rate is greater than or equal to 60% and less than 85%). Further, in test [3], the “Weeding effect … Digitaria sanguinalis” value was 4 (Level 4: growth control rate is greater than or equal to 60% and less than 85%). Further, the “Weeding effect … Eleusine indica” value in test [4] was 5 (Level 5: growth control rate is above 85%). Also, the “Weeding effect … Setaria viridis” value in test [5] is reported as 5 (Level 5: growth control rate is above 85%). Besides, the “Weeding effect … Echinochloa crusgalli” value in test [6] is on record as 5 (Level 5: growth control rate is above 85%).
Regarding `COC(=O)C(C)(C)O/N=C/c1cc(-n2c(=O)n(C)c(=S)n(C)c2=O)c(F)cc1Cl` [Compound 189], the “Weeding effect … Abutilon theophrasti” value in test [1] was 5 (Level 5: growth control rate is above 85%). Further, in test [2], the “Weeding effect … Alopecurus japonicus” value was 4 (Level 4: growth control rate is greater than or equal to 60% and less than 85%). Besides, in test [3], the “Weeding effect … Digitaria sanguinalis” value was 4 (Level 4: growth control rate is greater than or equal to 60% and less than 85%). In addition, the “Weeding effect … Eleusine indica” value in test [4] is 5 (Level 5: growth control rate is above 85%). For the same molecule, in test [5], the “Weeding effect … Setaria viridis” value is on record as 5 (Level 5: growth control rate is above 85%). For the same molecule, the “Weeding effect … Echinochloa crusgalli” value in test [6] is 4 (Level 4: growth control rate is greater than or equal to 60% and less than 85%).
As for `COCCOC(=O)C(C)O/N=C/c1cc(-n2c(=O)cc(C(F)(F)F)n(C)c2=O)c(F)cc1Cl` (stereo not drawn) [Compound 230], the “Weeding effect … Abutilon theophrasti” value in test [1] is listed as 5 (Level 5: growth control rate is above 85%). Further, the “Weeding effect … Alopecurus japonicus” value in test [2] is 5 (Level 5: growth control rate is above 85%). In addition, the “Weeding effect … Digitaria sanguinalis” value in test [3] is on record as 5 (Level 5: growth control rate is above 85%). Moreover, the “Weeding effect … Eleusine indica” value in test [4] is 5 (Level 5: growth control rate is above 85%). Moreover, the “Weeding effect … Setaria viridis” value in test [5] is 5 (Level 5: growth control rate is above 85%). In addition, the “Weeding effect … Echinochloa crusgalli” value in test [6] is given as 5 (Level 5: growth control rate is above 85%).
For the molecule `CCOCCOC(=O)C(C)O/N=C/c1cc(-n2c(=O)cc(C(F)(F)F)n(C)c2=O)c(F)cc1Cl` (stereo not drawn) [Compound 231], in test [1], the “Weeding effect … Abutilon theophrasti” value is recorded as 5 (Level 5: growth control rate is above 85%). Further, the “Weeding effect … Alopecurus japonicus” value in test [2] is reported as 5 (Level 5: growth control rate is above 85%). The “Weeding effect … Digitaria sanguinalis” value in test [3] is 5 (Level 5: growth control rate is above 85%). For the same molecule, the “Weeding effect … Eleusine indica” value in test [4] is given as 5 (Level 5: growth control rate is above 85%). Moreover, in test [5], the “Weeding effect … Setaria viridis” value is on record as 5 (Level 5: growth control rate is above 85%). Further, in test [6], the “Weeding effect … Echinochloa crusgalli” value is on record as 5 (Level 5: growth control rate is above 85%).
Consider `CCCCOCCOC(=O)C(C)O/N=C/c1cc(-n2c(=O)cc(C(F)(F)F)n(C)c2=O)c(F)cc1Cl` (stereo not drawn) [Compound 232], for which the “Weeding effect … Abutilon theophrasti” value in test [1] is 5 (Level 5: growth control rate is above 85%). Further, the “Weeding effect … Alopecurus japonicus” value in test [2] is on record as 5 (Level 5: growth control rate is above 85%). In addition, the “Weeding effect … Digitaria sanguinalis” value in test [3] was 5 (Level 5: growth control rate is above 85%). Further, the “Weeding effect … Eleusine indica” value in test [4] was 5 (Level 5: growth control rate is above 85%). Also, the “Weeding effect … Setaria viridis” value in test [5] was 5 (Level 5: growth control rate is above 85%). Further, in test [6], the “Weeding effect … Echinochloa crusgalli” value is 5 (Level 5: growth control rate is above 85%).
Regarding `CSCOC(=O)C(C)O/N=C/c1cc(-n2c(=O)cc(C(F)(F)F)n(C)c2=O)c(F)cc1Cl` (stereo not drawn) [Compound 233], the “Weeding effect … Abutilon theophrasti” value in test [1] is 5 (Level 5: growth control rate is above 85%). In test [2], the “Weeding effect … Alopecurus japonicus” value is 5 (Level 5: growth control rate is above 85%). Moreover, the “Weeding effect … Digitaria sanguinalis” value in test [3] is on record as 5 (Level 5: growth control rate is above 85%). Further, the “Weeding effect … Eleusine indica” value in test [4] is listed as 5 (Level 5: growth control rate is above 85%). Besides, the “Weeding effect … Setaria viridis” value in test [5] was 5 (Level 5: growth control rate is above 85%). In addition, the “Weeding effect … Echinochloa crusgalli” value in test [6] was 5 (Level 5: growth control rate is above 85%).
